Data set [1] deals with TNB (trinitrobenzenesulfonic acid)-induced ulcerative colitis. Put plainly: Rats with TNB-induced ulcerative colitis, macroscopic and microscopic examination of intestine, colon and cecum. The data set is classed as in vivo, rat. More on the design: key to Overall degree of inflammation / Mucosal inflammation and ulceration / Submucosal inflammation / Full thickness inflammation: − = No inflammation (normal); ± = Very minimal mucosal inflammation; + = Mild; +2 = Moderate; +3 = Severe. The following applies: for Full thickness inflammation / Mucosal inflammation and ulceration / Overall degree of inflammation / Submucosal inflammation: one rat per row; for activity against intestinal bowel disease: compared to the known compound 5ASA. As for the experimental part:
Rats with TNB (trinitrobenzenesulfonic acid)-induced ulcerative colitis were used as an animal model. 28 rats were randomly grouped (A, B, C1, C2, D1 and D2). Group A is used as positive control and each of the other three groups received a predetermined dose of compounds under testing (see Table 3). Animals were fasted for one night before taking the TNB solution. All animals received a solution (0.25 ml) of TNB in methylcelullose solution (50% methylcellulose in absolute ethanol) containing 20 mg of TNB. The TNB solution was administered by intracolonic administration using a syringe and rubber canula. The canula was inserted into the lumen of the colon via the anus. The cannula was advanced so that its tip was 8 cm from the anus. […] Group A took 0.5 ml of the suspension containing 2.5 mg of methylcellulose solution twice daily. • 2. […] The treatments were given for eight days, and on the 9th day the animals were sacrificed and opened along their abdomen for evaluation. The animals were subjected to the following testing • 1. Physical testing, as looking at the weight, […], general health, etc. • 2. Looking at the intestine before opening, colouration, thickness, etc. 3. Dissecting the intestine the colon and the cecum and examining them macroscopically and microscopically.

For data set [2] the following is noted: upon oral administration; cited from earlier work.
[3] abbreviates: Group C-1: 18 mg compound 9 orally twice daily for eight days.
The mark [4] stands for this setting: Group C-2: 28 mg compound 9 orally twice daily for eight days.
The mark [5] stands for this setting: Group B: 5 mg 5ASA orally twice daily for eight days.
Setting [6] is: Group D-1: 12 mg compound 5 orally twice daily for eight days.
Where [7] appears, read: Group D-2: 18 mg compound 5 orally twice daily for eight days.

Several values for one entry are separate records, joined by “and”; a condition that tells them apart may be missing. Identical values can stand only once.

With `O=C(O)Cc1ccc2oc(-c3ccc(N=Nc4ccc(O)c(C(=O)O)c4)cc3)nc2c1` [compound 9, 2-Hydroxy-5-[4-(benzoxazol-2-yl-5-acetic acid)phenylazo]benzoic acid], in data set [1] (setting [3]), the Full thickness inflammation entry is reported as “−”; the “Mucosal inflammation and ulceration” value is “− and + (5×)”; the “Overall degree of inflammation” value is “− and ± (3×) and +1 (2×)”; the Submucosal inflammation result is “− (3×) and ± and + (2×)”. In data set [1] (setting [4]), the Full thickness inflammation result was “−”; the “Mucosal inflammation and ulceration” value is “+”; the “Overall degree of inflammation” value is “± (2×) and +1”; the Submucosal inflammation entry was “± (2×) and +”. Further, the “activity against intestinal bowel disease” value in data set [1] was “significantly higher activity”.
As for `Nc1ccc(O)c(C(=O)O)c1` [5ASA, 5-aminosalicylic acid, reference compound], in data set [1] (setting [5]), the Full thickness inflammation result is “+”; the “Mucosal inflammation and ulceration” value was “+”; the “Overall degree of inflammation” value is “+2 (4×) and +3 and +1”; the Submucosal inflammation entry is “+”.
As to `O=C(O)c1cc(N=Nc2ccc(S(=O)(=O)Nc3ccccn3)cc2)ccc1O` [SS, 2-Hydroxy-5-[4-(2-pyridylsulfamoyl)phenylazo]benzoic acid], in data set [2], the “fraction of a given dose absorbed from the small intestine” value is on record as “about one-third”.
As to `Nc1ccc(-c2nc3cc(CC(=O)O)ccc3o2)cc1` [compound 5, 4-aminophenylbenzoxazole-5-acetic acid], in data set [1] (setting [6]), the Full thickness inflammation entry is “+ (3×) and − (2×)”; the “Mucosal inflammation and ulceration” value is “+ (4×) and −”; the “Overall degree of inflammation” value is “+1 (3×) and ± and −”; the Submucosal inflammation entry was “+ (3×) and − (2×)”. In addition, in data set [1] (setting [7]), the Full thickness inflammation result is recorded as “−”; the “Mucosal inflammation and ulceration” value is recorded as “+”; the “Overall degree of inflammation” value is “+1”; the Submucosal inflammation result was “+”. Moreover, the “activity against intestinal bowel disease” value in data set [1] is “significantly higher activity”.

(Values after patent US20070043003A1, “Novel compounds for the prophylaxis and treatment of inflammatory bowel diseases” (Hikma Pharmaceuticals Co., Ltd., priority 2005, published 2007).)
